Test results taken from patent US10660884B2, “Phosphonate-chloroquine conjugates and methods using same” (University of Rochester, priority 2015, dated 2020).

Key:
[1] = test system: WT mouse bone marrow (BM) cells (OC precursors); assay: Osteoclastogenesis assay: OC formation on plastic, TRAP staining; format: cell-based; conditions: for Inhibition of osteoclast activity by osteoclast staining: WT mouse BM cells, images FIGS. 11-12
TRAF3 = assay: Western blot of RANKL-induced TRAF3 degradation; format: cell-based, mouse; conditions: 3 μM, 8 hrs, Western blotting
Method: WT mouse BM cells, cultured with M-CSF as in FIG. 6, were treated with vehicle, BTCQ, CQ or NC-BTCQ (3 μM) for 8 hrs. Cell lysates were used to test TRAF3 and actin protein levels by Western blotting.
Cultured cells were lysed with M-Per mammalian protein extraction reagent. 10-20 μg protein were loaded onto 10% SDS-PAGE gels, transferred onto polyvinylidene difluoride membranes, incubated with primary and secondary Abs, followed by exposure to ECL substrate. Signals were analyzed using a Bio-Rad imaging system.

bone resorption = conditions: cited from earlier work; for Prevention of bone resorption in mice: literature report
[2] = literature; cited from earlier work

SMILES | Inhibition of osteoclast activity by osteoclast staining [1] | OC formation (OC numbers after TRAP staining) ([1]; BM cells on plastic, M-CSF 2 days, then RANKL plus compound 3 more days) | Concentration at which OC formation was inhibited (BTCQ more effective than CQ) ([1]; on plastic, FIG. 2A) | Prevention of RANKL-induced degradation of TRAF3 (TRAF3) | Dose that effectively blocks PTH-induced marrow fibrosis (bone resorption; Xiu Y et al., 2014) | Prevention of bone resorption in mice (bone resorption) | Blindness, share of patients [2]
CCN(CC)CCCC(C)N(C(=O)OCCCCCCCC(=O)NC(P(=O)(O)O)P(=O)(O)O)c1ccnc2cc(Cl)ccc12 (racemic) [UR-11, rac-(13-(7-chloroquinolin-4-yl)-18-ethyl-14-methyl-3,12-dioxo-11-oxa-2,13,18-triazaicosane-1,1-diyl)diphosphonic acid] | more effective at inhibiting osteoclast activity than the non cleavable amide UR-12 | – | – | – | – | – | –
CCN(CC)CCCC(C)Nc1ccnc2cc(Cl)ccc12.O=P(O)(O)O.O=P(O)(O)O (stereo not shown) [CQ, 7-chloro-4-[[4-(diethylamino)-1-methylbutyl]amino] quinoline phosphate (1:2)] | more effective at inhibiting osteoclast activity than HCQ | inhibited OC formation | 3 µM | unlike CQ and BTCQ, NC-BTCQ does not prevent RANKL-induced degradation of TRAF3 | 50 mg/kg | prevents bone resorption and osteoporosis | –
CCN(CCO)CCCC(C)Nc1ccnc2cc(Cl)ccc12 (stereo not shown) [HCQ, hydroxychloroquine] | CQ and BTCQ are more effective at inhibiting osteoclast activity than HCQ | – | – | – | – | does not prevent bone resorption in mice | 0.5-1%
